Test system: not listed separately
Assay: Ratio of IC50 for human HEPG2 cells to concentration causing antioxidant activity in Salmonella typhimurium TA102 harboring […] mutant
Assay type: functional
Conditions: not given

**Q.** For Cc1c(C)c2c(c(C)c1OC(=O)CCC(=O)NC1CC(C)(C)N([O])C1(C)C)CCC(C)(C(=O)NC1CC(C)(C)N([O])C1(C)C)O2 (stereo not drawn), which Ratio is on record?
**A.** 100 - 1000

Test system: not listed separately
Assay: Ratio of IC50 for human RPMI8226 cells to concentration causing antioxidant activity in Salmonella typhimurium TA102 harboring […] mutant
Assay type: functional, RPMI-8226
Conditions: not given

**Q.** Which Ratio does the source give for Cc1c(C)c2c(c(C)c1OC(=O)CCC(=O)NC1CC(C)(C)N([O])C1(C)C)CCC(C)(C(=O)NC1CC(C)(C)N([O])C1(C)C)O2 (stereo not drawn) here?
**A.** 100 - 1000

Test system: not listed separately
Assay: Cytotoxicity against human CEM13 cells assessed as reduction in cell viability after 72 hrs by MTT assay
Assay type: functional, cell-based
Conditions: CEM13, 72 h

**Q.** With Cc1c(C)c2c(c(C)c1OC(=O)CCC(=O)NC1CC(C)(C)N([O])C1(C)C)CCC(C)(C(=O)NC1CC(C)(C)N([O])C1(C)C)O2 (stereo not drawn) as the molecule, how does the IC50 read?
**A.** > 300 µM

Test system: not listed separately
Assay: Cytotoxicity against human HepG2 cells assessed as reduction in cell viability at 300 uM after 72 hrs by MTT assay
Assay type: functional
Conditions: HepG2, 72 h

**Q.** With Cc1c(C)c2c(c(C)c1OC(=O)CCC(=O)NC1CC(C)(C)N([O])C1(C)C)CCC(C)(C(=O)NC1CC(C)(C)N([O])C1(C)C)O2 (stereo not drawn) as the molecule, how does the inhibition at 300 µM read?
**A.** 15%

Test system: not listed separately
Assay: Ratio of IC50 for human U937 cells to concentration causing antioxidant activity in Salmonella typhimurium TA102 harboring […] mutant
Assay type: functional, U-937
Conditions: not given

**Q.** For Cc1c(C)c2c(c(C)c1OC(=O)CCC(=O)NC1CC(C)(C)N([O])C1(C)C)CCC(C)(C(=O)NC1CC(C)(C)N([O])C1(C)C)O2 (stereo not drawn), which Ratio is on record?
**A.** 100 - 1000

Test system: not listed separately
Assay: Cytotoxicity against human RPMI8226 cells assessed as reduction in cell viability at 300 uM after 72 hrs by MTT assay
Assay type: functional
Conditions: RPMI-8226, 72 h

**Q.** With Cc1c(C)c2c(c(C)c1OC(=O)CCC(=O)NC1CC(C)(C)N([O])C1(C)C)CCC(C)(C(=O)NC1CC(C)(C)N([O])C1(C)C)O2 (stereo not drawn) as the molecule, how does the inhibition at 300 µM read?
**A.** 0%

Test system: not listed separately
Assay: Cytotoxicity against human MCF7 cells assessed as reduction in cell viability after 72 hrs by MTT assay
Assay type: functional, cell-based
Conditions: MCF7, 72 h

**Q.** For Cc1c(C)c2c(c(C)c1OC(=O)CCC(=O)NC1CC(C)(C)N([O])C1(C)C)CCC(C)(C(=O)NC1CC(C)(C)N([O])C1(C)C)O2 (stereo not drawn), which IC50 is on record?
**A.** 86 µM

Test system: Salmonella enterica subsp. enterica serovar Typhimurium
Assay: Antioxidant activity in Salmonella typhimurium TA102 harboring […] mutant assessed as inhibition of t-BuO2H-dependant mutant formation at 3 uM preincubated with compound followed by t-BuO2H addition after 48 hrs by Ames test
Assay type: functional
Conditions: not given

**Q.** Which inhibition does the source give for Cc1c(C)c2c(c(C)c1OC(=O)CCC(=O)NC1CC(C)(C)N([O])C1(C)C)CCC(C)(C(=O)NC1CC(C)(C)N([O])C1(C)C)O2 (stereo not drawn) here?
**A.** 20%

Test system: not listed separately
Assay: Cytotoxicity against hamster AG17-1 cells assessed as reduction in cell viability after 72 hrs by MTT assay
Assay type: toxicity, cell-based, Cricetulus griseus
Conditions: Chinese hamster

**Q.** Which IC50 at 72 h does the source give for Cc1c(C)c2c(c(C)c1OC(=O)CCC(=O)NC1CC(C)(C)N([O])C1(C)C)CCC(C)(C(=O)NC1CC(C)(C)N([O])C1(C)C)O2 (stereo not drawn) here?
**A.** 166 µM

Test system: not listed separately
Assay: Ratio of IC50 for human MCF7 cells to concentration causing antioxidant activity in Salmonella typhimurium TA102 harboring […] mutant
Assay type: functional
Conditions: not given

**Q.** For Cc1c(C)c2c(c(C)c1OC(=O)CCC(=O)NC1CC(C)(C)N([O])C1(C)C)CCC(C)(C(=O)NC1CC(C)(C)N([O])C1(C)C)O2 (stereo not drawn), which Ratio is on record?
**A.** 100 - 1000

Test system: not listed separately
Assay: Cytotoxicity against mouse LMTK cells assessed as reduction in cell viability after 72 hrs by MTT assay
Assay type: toxicity
Conditions: not given

**Q.** For Cc1c(C)c2c(c(C)c1OC(=O)CCC(=O)NC1CC(C)(C)N([O])C1(C)C)CCC(C)(C(=O)NC1CC(C)(C)N([O])C1(C)C)O2 (stereo not drawn), which IC50 at 72 h is on record?
**A.** > 300 µM

Test system: Salmonella enterica subsp. enterica serovar Typhimurium
Assay: Antioxidant activity in Salmonella typhimurium TA102 harboring […] mutant assessed as inhibition of t-BuO2H-dependant mutant formation at 30 uM preincubated with compound followed by t-BuO2H addition after 48 hrs by Ames test
Assay type: functional
Conditions: not given

**Q.** Which inhibition does the source give for Cc1c(C)c2c(c(C)c1OC(=O)CCC(=O)NC1CC(C)(C)N([O])C1(C)C)CCC(C)(C(=O)NC1CC(C)(C)N([O])C1(C)C)O2 (stereo not drawn) here?
**A.** 13%

Test system: Salmonella typhimurium
Assay: Genotoxicity in Salmonella typhimurium TA102 harboring […] mutant assessed as frequency of reversion from histidine auxotrophy to prototrophy at 30 mM after 48 hrs by Ames test (reference value: 209 +/- 10 No _unit)
Assay type: toxicity, organism-based
Conditions: salmonella enterica subsp. enterica serovar typhimurium, 30000 µM

**Q.** Which Activity does the source give for Cc1c(C)c2c(c(C)c1OC(=O)CCC(=O)NC1CC(C)(C)N([O])C1(C)C)CCC(C)(C(=O)NC1CC(C)(C)N([O])C1(C)C)O2 (stereo not drawn) here?
**A.** 229

Test system: not listed separately
Assay: Ratio of IC50 for human MT4 cells to concentration causing antioxidant activity in Salmonella typhimurium TA102 harboring […] mutant
Assay type: functional
Conditions: not given

**Q.** With Cc1c(C)c2c(c(C)c1OC(=O)CCC(=O)NC1CC(C)(C)N([O])C1(C)C)CCC(C)(C(=O)NC1CC(C)(C)N([O])C1(C)C)O2 (stereo not drawn) as the molecule, how does the Ratio read?
**A.** 100 - 1000

Test system: not listed separately
Assay: Genotoxicity in Escherichia coli PQ37 expressing lacZ gene assessed as ratio of inducible beta-galactosidase activity to alkaline phosphatase activity at 30 mM after 2 hrs by SOS-chromotest relative to control
Assay type: toxicity
Conditions: Escherichia coli PQ37 cells expressing lacZ gene, read-out: FC

**Q.** With Cc1c(C)c2c(c(C)c1OC(=O)CCC(=O)NC1CC(C)(C)N([O])C1(C)C)CCC(C)(C(=O)NC1CC(C)(C)N([O])C1(C)C)O2 (stereo not drawn) as the molecule, how does the fold induction at 2 h, 30000 µM read?
**A.** 1.1

Test system: not listed separately
Assay: Cytotoxicity against human CEM13 cells assessed as reduction in cell viability at 300 uM after 72 hrs by MTT assay
Assay type: functional
Conditions: CEM13, 72 h

**Q.** Which inhibition at 300 µM does the source give for Cc1c(C)c2c(c(C)c1OC(=O)CCC(=O)NC1CC(C)(C)N([O])C1(C)C)CCC(C)(C(=O)NC1CC(C)(C)N([O])C1(C)C)O2 (stereo not drawn) here?
**A.** 34%

Test system: not listed separately
Assay: Cytotoxicity against human HepG2 cells assessed as reduction in cell viability after 72 hrs by MTT assay
Assay type: functional, cell-based
Conditions: HepG2, 72 h

**Q.** Which IC50 does the source give for Cc1c(C)c2c(c(C)c1OC(=O)CCC(=O)NC1CC(C)(C)N([O])C1(C)C)CCC(C)(C(=O)NC1CC(C)(C)N([O])C1(C)C)O2 (stereo not drawn) here?
**A.** > 300 µM

Test system: not listed separately
Assay: Cytotoxicity against human RPMI8226 cells assessed as reduction in cell viability after 72 hrs by MTT assay
Assay type: functional, cell-based
Conditions: RPMI-8226, 72 h

**Q.** With Cc1c(C)c2c(c(C)c1OC(=O)CCC(=O)NC1CC(C)(C)N([O])C1(C)C)CCC(C)(C(=O)NC1CC(C)(C)N([O])C1(C)C)O2 (stereo not drawn) as the molecule, how does the IC50 read?
**A.** > 300 µM

Test system: not listed separately
Assay: Ratio of IC50 for human CEM13 cells to concentration causing antioxidant activity in Salmonella typhimurium TA102 harboring […] mutant
Assay type: functional
Conditions: not given

**Q.** With Cc1c(C)c2c(c(C)c1OC(=O)CCC(=O)NC1CC(C)(C)N([O])C1(C)C)CCC(C)(C(=O)NC1CC(C)(C)N([O])C1(C)C)O2 (stereo not drawn) as the molecule, how does the Ratio read?
**A.** 100 - 1000

Test system: not listed separately
Assay: Cytotoxicity against human MT4 cells assessed as reduction in cell viability after 72 hrs by MTT assay
Assay type: functional, cell-based
Conditions: MT4, 72 h

**Q.** For Cc1c(C)c2c(c(C)c1OC(=O)CCC(=O)NC1CC(C)(C)N([O])C1(C)C)CCC(C)(C(=O)NC1CC(C)(C)N([O])C1(C)C)O2 (stereo not drawn), which IC50 is on record?
**A.** 207 µM

Test system: not listed separately
Assay: Cytotoxicity against human U937 cells assessed as reduction in cell viability after 72 hrs by MTT assay
Assay type: functional, cell-based
Conditions: U-937, 72 h

**Q.** With Cc1c(C)c2c(c(C)c1OC(=O)CCC(=O)NC1CC(C)(C)N([O])C1(C)C)CCC(C)(C(=O)NC1CC(C)(C)N([O])C1(C)C)O2 (stereo not drawn) as the molecule, how does the IC50 read?
**A.** 75 µM

Test system: not listed separately
Assay: Cytotoxicity against mouse LMTK cells assessed as reduction in cell viability at 300 uM after 72 hrs by MTT assay
Assay type: toxicity
Conditions: read-out: INH

**Q.** With Cc1c(C)c2c(c(C)c1OC(=O)CCC(=O)NC1CC(C)(C)N([O])C1(C)C)CCC(C)(C(=O)NC1CC(C)(C)N([O])C1(C)C)O2 (stereo not drawn) as the molecule, how does the cytotoxicity at 72 h, 300 µM read?
**A.** 10%

Test system: Salmonella enterica subsp. enterica serovar Typhimurium
Assay: Antioxidant activity in Salmonella typhimurium TA102 harboring […] mutant assessed as inhibition of t-BuO2H-dependant mutant formation at 0.3 uM preincubated with compound followed by t-BuO2H addition after 48 hrs by Ames test
Assay type: functional
Conditions: not given

**Q.** With Cc1c(C)c2c(c(C)c1OC(=O)CCC(=O)NC1CC(C)(C)N([O])C1(C)C)CCC(C)(C(=O)NC1CC(C)(C)N([O])C1(C)C)O2 (stereo not drawn) as the molecule, how does the inhibition read?
**A.** 22%

Source: ChEMBL document CHEMBL3865792, “Antioxidant and antitumor activity of trolox, trolox succinate, and α-tocopheryl succinate conjugates with nitroxides” (Eur J Med Chem, 2016)
